# Measured values from patent US11491155B2, “Salt of a pyrimido[6,1-A]isoquinolin-4-one compound” (VERONA PHARMA PLC, priority 2015, dated 2022).
# Key:
# [1] = Physico-chemical characteristics of salt candidates: solubility in water, pH of aqueous suspension/solution, form post water maturation; conditions: listed as p-Toluene sulfonic
# Experimental: The physico-chemical characteristics of the salt candidates were determined.
# [2] = Solubility of RPL554 salts in saline solutions, water and aqueous buffer solutions at 25° C. (HPLC); assay type: physicochemical; conditions: 24 hours
# Experimental: The behaviour of salts of RPL554 were examined under the following conditions: • Phosphate buffered to pH 3.5 in saline, 0.9% w/w at 25° C. • Acetate buffered to pH 4.5 in saline, 0.9% w/w at 25° C. • Citro-Phosphate buffered to pH 4.5 in saline, 0.9% w/w at 25° C. • Phosphate buffered to pH 6.5 in saline, 0.9% w/w at 25° C. • Saline, 0.7, 0.9 and 1.1% w/w at 25° C. • Deionised water at 25° C.
# RPL554 salts and RPL554, ca 50 mg, were suspended in the various aqueous media, 1 ml, with agitation at the specified temperatures for 24 hours. The solids were isolated and dried in vacuo at 45° C. The retained filtrates were examined by HPLC.
# Additional RPL554 methane sulfonate salt, ca 50 mg, was charged to the water mixtures at 25° C. and 37.5° C. in order to afford a suspension. In all other cases, suspensions were obtained.
# The solubility of the RPL554 was determined by HPLC using a single point calibration and is expressed as RPL554 and not as the salt and are detailed in Table 6 and Table 7 for the various conditions utilised.
# [3] = Aerosol performance of DPI formulations (Cyclohaler, NGI); assay type: physicochemical
# Experimental: Capsules were hand filled with 20 mg of the 1% w/w RPL554 free base or salt variants: lactose blends, i.e. 200 μg salt per capsule, the fill weight of each capsule was recorded. Due to differences in the molecular weights of the RPL554 salt forms, the amount of RPL554 emitted per actuation varied as a function of molecular weight. The formulations were prepared with no adjustment for differences in molecular weight of the salts.
# The powders were delivered via the Cyclohaler® DPI (PCH Pharmachemie, BV, The Netherlands). The Cyclohaler® DPI is a low resistance device and was operated at a flow rate of 90 L/min for 2.7 seconds. The cut off diameters for the NGI collection stages were calculated for the 90 L/min flow rate using the NGI User Guide (MSP Corporation, 2008).
# The ED, FPD and FPF were determined from inertial impaction tests performed following the deposition of 5 capsules of each formulation into the NGI. For each capsule tested the combined weight of the Cyclohaler® and capsule was determined before and after operation to check that the dose had been delivered. The NGI was fitted with a pre-separator for these determinations. The central cup of the pre-separator was filled with 15 mL of diluent. Following deposition, the solution was recovered in a 20 mL volumetric flask and made up to volume with diluent. RPL554 was quantitatively recovered from the device, induction port and each of the NGI collection stages with 10 mL of diluent.
# The volume of diluent used for each sample was selected to ensure RPL554 concentrations were above the limit of quantitation.
# [4] = Solubility of RPL554 and salts in pMDI propellant systems; assay type: physicochemical
# Experimental: Quantitative assessment of the solubility of RPL554 and salt variants in the propellant systems of selected pMDI formulations (three replicates of each formulation) was performed. pMDIs were directly coupled to an adaptor fitted with a 0.20 μm filter unit connected, in series to a 21 G needle, which was inserted via a rubber septum, into a cooled multi-dose glass vial. A 19 G filter needle was inserted through the septum to aid evaporation of propellant from the vial. Prior to the filtration process the vial was cooled in a mixture of dry ice and acetone to ensure that the pressure within the vial was reduced in order to facilitate collection of the output from the pMDI. Ten consecutive actuations of the pMDI were fired through the filter and collected in the vial. Between actuations the canister was shaken for approximately 10 seconds. The pMDI unit was weighed before and after the filtering procedure. The filtrate was stored at room temperature and allowed to evaporate to dryness.
# Samples were recovered by carefully rinsing the inside of the vials with 1 mL of recovery solution before transfer to HPLC vials for analysis. The estimated % of RPL554 solubilised within the canister was calculated from the starting mass of RPL554 within the canisters, which in turn was calculated using the theoretical molecular weight values of the RPL554 free base and salt variants shown in Table 13. The theoretical molecular weight estimates of the salts were provided by Verona.
# [5] = Primary particle size analysis by laser light diffraction (Mastersizer 2000); assay type: physicochemical; conditions: micronised, mean n=3
# Experimental: A Mastersizer 2000 fitted with a Scirocco 2000 dry powder dispersion unit (Malvern Instruments Ltd, UK) was used to analyse the primary particle size of the micronised RPL554 and salt variants. The salts (50 mg) were automatically sampled via a vibrating feed control at a feeder rate of 60% and dispersed in compressed air at a pressure of 3 bar.
# [6] = RPL554 content and content uniformity of 1% w/w lactose powder blends; assay type: physicochemical
# Experimental: Batches (approximately 5 g) of 1% w/w RPL554 free base or salt variants: lactose blends were prepared. In brief, the RPL554 free base or salt plus a small quantity of lactose was passed through a 38 μm sieve. The sieved material plus the remaining lactose was mixed in a glass mortar prior to transfer to a stainless steel screw cap jar and further mixing (10 minutes at 46 rpm) conducted using a Turbula blender. The composition of the dry powder blend was 0.05 g API and 4.95 g lactose.
# In order to determine the content uniformity of the blends, aliquots (approx. 20 mg) of powder were sampled from each blend, accurately weighed, and diluted to volume in 10 mL volumetric flasks with diluent. The flasks were sonicated for 3 minutes before samples were transferred to HPLC vials for analysis.
# [7] = Intrinsic dissolution of compressed tablet, pH 7.0, 37° C. (Sirius inForm); assay type: physicochemical; conditions: pH 7.0, 0.15 M NaCl, 37° C.; listed as p-toluenesulfonate salt
# Experimental: The dissolution assay (pH-dependent sample dissolution) was investigated using the Sirius inForm.
# Dissolution of a compressed tablet of the compound was monitored in a pH 7.0 aqueous dissolution experiment (0.15 M NaCl) at 37° C. using UV-absorption spectroscopy in 2 hour experiments. A tablet with a diameter of 3 mm, requiring approximate weights of 10 mg was compressed under a weight of 100 kg load force. Only one face of the tablet was exposed to the dissolution medium, which contained a 0.01 M acetate/phosphate buffer system to minimise perturbation of the experimental pH from dissolution of the drug.
# Stirring of the solution was continuous and at a constant rate of 100 rpm. The absorption data was converted to absolute sample weights using previously determined, pH-dependent, molar extinction coefficients. An appropriate wavelength range was chosen to ensure that spectroscopic data with an absorption value of <1.3 was analysed, avoiding erroneous dissolution results due to saturation of the UV light source.
structure (smiles),measurement,setting,value
"COc1cc2c(cc1OC)-c1c/c(=N\c3c(C)cc(C)cc3C)n(CCNC(N)=O)c(=O)n1CC2 [p-Toluenesulfonate, RPL554 p-toluenesulfonate]",pH of aqueous suspension/solution,[1],3.40
same,Solubility as RPL554 (mg/ml) in 0.7 w/w % Saline,[2],0.83 mg/mL
same,Solubility as RPL554 (mg/ml) in 0.9 w/w % Saline,[2],0.62 mg/mL
same,Solubility as RPL554 (mg/ml) in 1.1 w/w % Saline,[2],0.8 mg/mL
same,Solubility as RPL554 (mg/ml) in Water,[2]; deionised water,1.01 mg/mL
same,†Measured Mass of 1% w/w Blend Delivered per capsule,"[3]; Cyclohaler, 5 capsules containing 20 mg powder blend, mass from weight change of capsule-loaded device",20.02 mg
same,††RPL554 Emitted (μg) per capsule (B),"[3]; Cyclohaler, NGI, mass determined from HPLC analysis of recovered samples, as RPL554 base",86.84 µg
same,Calculated RPL554 Content (μg) per capsule (A),"[3]; calculated from delivered blend mass and measured blend content, as RPL554 base",130.46 µg
same,Calculated RPL554 solubilised (%),[4]; in HFA 134,0.08%
same,Calculated Solubilised RPL554 μg per 50 μL actuation,[4]; in HFA 134,0.11 µg
same,Solubility RPL554,"[4]; in HFA 134, BLQ = below limit of quantitation (0.06 μg/mL)",1.56 µg/g
same,Solubility RPL554 (μg/g),"[4]; in HFA 134, BLQ = below limit of quantitation (0.06 μg/mL), listed as p-toluensulfonate",quantifiable levels of solubility
same,Estimated RPL554 solubilised (%),[4]; in HFA 134 with Ethanol/Tween,7.20%
same,Estimated Solubilised RPL554 μg per 50 μL actuation,[4]; in HFA 134 with Ethanol/Tween,10.58 µg
same,Solubility RPL554,[4]; in HFA 134 with Ethanol/Tween,152.85 µg/g
same,Calculated RPL554 solubilised (%),[4]; in HFA 227,BLQ
same,Calculated Solubilised RPL554 μg per 50 μL actuation,[4]; in HFA 227,BLQ
same,Solubility RPL554 (μg/g),[4]; in HFA 227,BLQ
same,D (0.1) (μm),[5],0.47 μm
same,D (0.5) (μm),[5],1.34 μm
same,D (0.9) (μm),[5],4.53 μm
same,Measured Blend Content (% Theoretical),"[6]; 1% w/w RPL554 variant: lactose powder blend, expressed as RPL554 base",88.66 % Theoretical
same,**Adjusted RPL554 Content per capsule,"[6]; per 20 mg capsule of 1% w/w lactose blend, adjusted for measured blend content (% theoretical), as RPL554 base",130.33 µg
same,"Mass of salt (μg) dissolved after 2 hours, Average",[7],61.6 µg
same,"Mass of salt (μg) dissolved after 2 hours, Test 1",[7],51.2 µg
same,"Mass of salt (μg) dissolved after 2 hours, Test 2",[7],71.9 µg
